Results reported in US20070219180A1, “Muscle Relaxtion Accelerator and Therapeutic Agent for Muscular Tissue Diseases Such as Muscle Relaxation Failure” (priority 2004, published 2007).

System: binding of troponin I to the actin-tropomyosin complex
Assay: Experiment 4 and comparison example: co-precipitation (binding) of troponin I with the actin-tropomyosin complex in the presence of EGTA
Set-up: species or system swine
Details: for Precipitate of troponin I (ratio to the sample without drug): 10 mM EGTA, 100,000×g 120 min 25° C.
Method: The actin-tropomyosin complex and the troponin C-I complex are usually detected by analyzing the precipitate obtained by ultracentrifugation of a mixture containing the actin-tropomyosin complex and the troponin C-I complex for 120 minutes at 100,000×g at 25° C. The binding of the troponin C-I complex to the actin-tropomyosin complex in muscle tissues can be confirmed by the detected actin-tropomyosin complex and the detected troponin C-I complex. For example, when a mixture containing the actin-tropomyosin complex and the troponin C-I complex is ultracentrifuged in the presence of EGTA as a calcium chelating agent (in other words, in the absence of calcium ions), the actin-tropomyosin complex and the troponin C-I complex combine each other to precipitate together. Detection of troponin I in the precipitate using SDS-gel electrophoresis allows confirmation that the precipitate contains a complex formed by the actin-tropomyosin complex and the troponin C-I complex.
A precipitate due to binding of the actin-tropomyosin complex and troponin I is usually not formed when a mixture containing the actin-tropomyosin complex, troponin and propranolol (a β-blocker) used as a therapeutic agent for heart failure is ultracentrifuged at 100,000×g for 120 minutes 25° C.
Swine muscle-derived actin, chicken gizzard-derived tropomyosin and swine myocardium-derived troponin used in this experiment were purchased from Sigma-Aldrich Corporation, and other unspecified reagents used in this experiment were purchased from Wako Pure Chemical Industries Ltd.
A 500 μl sample was prepared by adding 4.2 μg of actin, 2.1 μg of tropomyosin and 14 μg of troponin to 500 μl of a reaction solution containing 60 mM KCl, 20 mM MOPS (3-morpholinopropanesulfonic acid), 2 mM of MgCl2, 0.05 μg of pepstatin A, and 15 mM 2-mercaptoethanol. After centrifugation of this sample at 2,000×g for 10 minutes at 25° C., the precipitate was removed and the resulting supernatant was distributed to separate test tubes containing 10 mM of EGTA, and each tube was determined as a test sample.
Each test sample was reacted for 120 minutes at 25° C. and centrifuged at 100,000×g for 120 minutes at 25° C., and the supernatants were removed. After reaction solution was gently added to the removed precipitate so as not to suspend the precipitate, the precipitate was again removed by suction, washed, and determined as a test precipitate.
A sample buffer for polyacrylamide gel electrophoresis (SDS-PAGE) was added to each washed test precipitate and mixed well to suspend the test precipitate. The resulting suspension was electrophoresized on a gel (PAG MINI “No. 1” 10/20) for about 1 hour at 40 mA. After electrophoresis, the suspension was silver-stained using “Daiichi” 2D-silver staining reagent (Daiichi Pure Chemicals Co., Ltd), and washed with distilled water and dried. The amount of precipitate in each silver-stained protein band obtained by gel electrophoresis was quantitated using a densitometer.
The amounts of precipitate of troponin I in the second to fifth test precipitates were calculated as ratios of the amount of precipitate of troponin I in the first test precipitate, which was obtained without the compound (the concentration of the compound was 0 M).
The affinity of troponin I for the actin-tropomyosin complex was measured using the same method as in Experiment 4, but using propranolol (a β-blocker which is used as a therapeutic agent for heart failure) for comparison with the compound in the invention.
A 500 μl sample was prepared by adding 4.2 μg of actin, 2.1 μg of tropomyosin and 14 μg of troponin I to 500 μl of a reaction solution containing 60 mM KCl, 20 mM MOPS (3-morpholinopropanesulfonic acid), 2 mM MgCl2, 0.05 μg of pepstatin A, and 15 mM 2-mercaptoethanol. […]

- Precipitate of troponin I (ratio to the sample without drug) (drug concentration 10^−4 mol): 1.1
- Precipitate of troponin I (ratio to the sample without drug) (drug concentration 10^−5 mol): 0.9
- Precipitate of troponin I (ratio to the sample without drug) (drug concentration 10^−6 mol): 1.1
- Precipitate of troponin I (ratio to the sample without drug) (drug concentration 10^−7 mol): 0.9
SMILES: CC(C)NCC(O)COc1cccc2ccccc12 (centres unmarked) [Propranolol, propranolol]
- Effect on the bonding strength of troponin I to the actin-tropomyosin complex (co-precipitation) (ultracentrifugation 100,000×g, 120 minutes, 25° C.): does not enhance the bonding strength of troponin to the actin-tropomyosin complex
